# Like-named read-outs stand apart in the source and are kept apart here.
# Tests used:
# Streptococcus gordonii = assay: Biofilm growth assay in BHI, crystal violet; assay type: cell-based; conditions: S gordonii
# Procedure: (§1) Late exponential growth phase liquid cultures were prepared by transferring the respective bacterium from blood agar plates to BHI and overnight incubation at 37° C. in an anaerobic atmosphere for A. viscosus, V. parvula, F. nucleatum, P. gingivalis, P. intermedia, T. forsythia, A. naeslundii, and C. sputigena, and in a 5% CO2 environment for S. salivarius, S. sanguinis, S. mitis, A. actinomycetemcomitans, S. mutans, and S. gordonii. […] Additionally, for each bacterium tested, a background control, to correct for background staining, was added. This background control contained the bacterium tested and 0.03 weight % chlorhexidine, as an antiseptic. Plates were incubated as previously described. After 48 hrs the supernatant was removed from the wells of the plates. The wells were washed twice with 1×100 μL/PBS (phosphate buffered saline), fixed for 20 minutes with 96% vol. ethanol (96% vol. solution in water) and the biofilm retained at the bottom of the wells was stained with 1 weight % crystal violet (1 weight % solution in water). […] Quantification of the stained biofilm was performed by measuring the absorbance at 630 nm using a Multiskan Ascent microplate reader (Thermo Scientific).
# Actinomyces viscosus = assay: Biofilm growth assay in BHI, crystal violet; assay type: cell-based; conditions: A viscosus
# Procedure: as §1
# Streptococcus salivarius = assay: Biofilm growth assay in BHI, crystal violet; assay type: cell-based; conditions: S salivarius
# Procedure: as §1
# Capnocytophaga sputigena = assay: Biofilm growth assay in BHI, crystal violet; assay type: cell-based; conditions: C sputigena
# Procedure: as §1
# Streptococcus mutans = assay: Biofilm growth assay in BHI, crystal violet; assay type: cell-based; conditions: S mutans
# Procedure: as §1
# Veillonella parvula = assay: Biofilm growth assay in BHI, crystal violet; assay type: cell-based; conditions: V parvula
# Procedure: as §1
# Fusobacterium nucleatum [1] = assay: Biofilm growth assay in BHI, crystal violet; assay type: cell-based; conditions: F nucleatum
# Procedure: as §1
# Prevotella intermedia [2] = assay: Biofilm growth assay in BHI, crystal violet; assay type: cell-based; conditions: P intermedia
# Procedure: as §1
# [3] = system: Aggregatibacter actinomycetemcomitans; assay: Biofilm growth assay in BHI, crystal violet; assay type: cell-based; conditions: A actinomycetemcomitans
# Procedure: as §1
# Fusobacterium nucleatum [4] = conditions: F nucleatum, BHI
# Procedure: (§2) Late exponential growth phase liquid cultures were prepared by transferring the respective bacterium from blood agar plates to BHI and overnight incubation at 37° C. in an anaerobic atmosphere for A. viscosus, V. parvula, F. nucleatum, P. gingivalis, P. intermedia, T forsythia, A. naeslundii, and C. sputigena, and in a 5% CO2 environment for S. salivarius, S. sanguinis, S. mitis, A. actinomycetemcomitans, S. mutans, S. sobrinus and S. gordonii. Overnight cultures were transferred to BHI and adjusted to a concentration of 1×10^7 CFU/ml (colony forming units per ml) by measuring the optical density at 600 nm (OD600) (BioRad SmartSpec 3000). For each strain, 200 μl of the bacterial suspension was added to a 96-well plate containing 20 μl of the respective carboxylic acids. Final concentrations of the carboxylic acids were set to 5, 10, 20 and 25 μmol/ml. […] Plates were incubated as previously described.
# (§3) For each combination of bacterium/carboxylic acid, and for each of their respective controls (i.e. the particular bacterium in the nutritionally rich medium with no carboxylic acid), the optical density was measured at 630 nm (OD630) at 0 h, 24 h and 48 h (Thermo Scientific Multiskan Ascent). Additionally, the OD630 for combinations of bacterium/carboxylic acid grown in a 5% CO2 environment were also measured every hour between 0 h and 9 h.
# (§4) The experiment was carried out on three different days (thus providing 3 biological replicas) and on each day the experiment was carried out in quadruple (thus providing 4 technical replicas) for each combination of bacterium with carboxylic acid and for each control. For each day and for each combination, the average (mean) of the values obtained (as detailed above) for the four technical replicas was calculated to provide a single value for each combination on each day.
# Prevotella intermedia [5] = conditions: P intermedia, BHI
# Procedure: as §2, §3, §4
smiles,measurement,setting,value
N[C@@H](CC(=O)O)C(=O)O [L-aspartic acid],"biofilm growth, OD at 630 nm (crystal violet) at 48 hrs divided by OD of control (control = 1)",Streptococcus gordonii; 10 μmol/ml,1.6702
same,"biofilm growth, OD at 630 nm (crystal violet) at 48 hrs divided by OD of control (control = 1)",Streptococcus gordonii; 20 μmol/ml,2.1065
same,"biofilm growth, OD at 630 nm (crystal violet) at 48 hrs divided by OD of control (control = 1)",Streptococcus gordonii; 25 μmol/ml,2.2320
same,"biofilm growth, OD at 630 nm (crystal violet) at 48 hrs divided by OD of control (control = 1)",Actinomyces viscosus; 5 μmol/ml,0.5576
same,"biofilm growth, OD at 630 nm (crystal violet) at 48 hrs divided by OD of control (control = 1)",Actinomyces viscosus; 10 μmol/ml,0.5650
same,"biofilm growth, OD at 630 nm (crystal violet) at 48 hrs divided by OD of control (control = 1)",Actinomyces viscosus; 20 μmol/ml,0.5834
same,"biofilm growth, OD at 630 nm (crystal violet) at 48 hrs divided by OD of control (control = 1)",Actinomyces viscosus; 25 μmol/ml,0.5289
same,"biofilm growth, OD at 630 nm (crystal violet) at 48 hrs divided by OD of control (control = 1)",Streptococcus salivarius; 5 μmol/ml,1.4152
same,"biofilm growth, OD at 630 nm (crystal violet) at 48 hrs divided by OD of control (control = 1)",Streptococcus salivarius; 10 μmol/ml,1.9207
same,"biofilm growth, OD at 630 nm (crystal violet) at 48 hrs divided by OD of control (control = 1)",Streptococcus salivarius; 20 μmol/ml,2.4799
same,"biofilm growth, OD at 630 nm (crystal violet) at 48 hrs divided by OD of control (control = 1)",Streptococcus salivarius; 25 μmol/ml,3.0682
same,"biofilm growth, OD at 630 nm (crystal violet) at 48 hrs divided by OD of control (control = 1)",Capnocytophaga sputigena; 5 μmol/ml,0.9508
same,"biofilm growth, OD at 630 nm (crystal violet) at 48 hrs divided by OD of control (control = 1)",Capnocytophaga sputigena; 10 μmol/ml,0.9546
same,"biofilm growth, OD at 630 nm (crystal violet) at 48 hrs divided by OD of control (control = 1)",Capnocytophaga sputigena; 20 μmol/ml,0.9747
same,"biofilm growth, OD at 630 nm (crystal violet) at 48 hrs divided by OD of control (control = 1)",Capnocytophaga sputigena; 25 μmol/ml,0.9785
same,"biofilm growth, OD at 630 nm (crystal violet) at 48 hrs divided by OD of control (control = 1)",Streptococcus mutans; 5 μmol/ml,0.0000
same,"biofilm growth, OD at 630 nm (crystal violet) at 48 hrs divided by OD of control (control = 1)",Streptococcus mutans; 10 μmol/ml,0.0000
same,"biofilm growth, OD at 630 nm (crystal violet) at 48 hrs divided by OD of control (control = 1)",Streptococcus mutans; 20 μmol/ml,0.1923
same,"biofilm growth, OD at 630 nm (crystal violet) at 48 hrs divided by OD of control (control = 1)",Streptococcus mutans; 25 μmol/ml,0.0000
same,"biofilm growth, OD at 630 nm (crystal violet) at 48 hrs divided by OD of control (control = 1)",Veillonella parvula; 5 μmol/ml,1.1641
same,"biofilm growth, OD at 630 nm (crystal violet) at 48 hrs divided by OD of control (control = 1)",Veillonella parvula; 10 μmol/ml,1.2799
same,"biofilm growth, OD at 630 nm (crystal violet) at 48 hrs divided by OD of control (control = 1)",Veillonella parvula; 20 μmol/ml,1.5344
same,"biofilm growth, OD at 630 nm (crystal violet) at 48 hrs divided by OD of control (control = 1)",Veillonella parvula; 25 μmol/ml,1.6960
same,"biofilm growth, OD at 630 nm (crystal violet) at 48 hrs divided by OD of control (control = 1)",Fusobacterium nucleatum [1]; 5 μmol/ml,1.2145
same,"biofilm growth, OD at 630 nm (crystal violet) at 48 hrs divided by OD of control (control = 1)",Fusobacterium nucleatum [1]; 10 μmol/ml,0.9710
same,"biofilm growth, OD at 630 nm (crystal violet) at 48 hrs divided by OD of control (control = 1)",Fusobacterium nucleatum [1]; 20 μmol/ml,0.9621
same,"biofilm growth, OD at 630 nm (crystal violet) at 48 hrs divided by OD of control (control = 1)",Fusobacterium nucleatum [1]; 25 μmol/ml,0.8549
same,"biofilm growth, OD at 630 nm (crystal violet) at 48 hrs divided by OD of control (control = 1)",Prevotella intermedia [2]; 5 μmol/ml,1.4322
same,"biofilm growth, OD at 630 nm (crystal violet) at 48 hrs divided by OD of control (control = 1)",Prevotella intermedia [2]; 10 μmol/ml,1.6018
same,"biofilm growth, OD at 630 nm (crystal violet) at 48 hrs divided by OD of control (control = 1)",Prevotella intermedia [2]; 20 μmol/ml,1.6295
same,"biofilm growth, OD at 630 nm (crystal violet) at 48 hrs divided by OD of control (control = 1)",Prevotella intermedia [2]; 25 μmol/ml,1.5442
same,"biofilm growth, OD at 630 nm (crystal violet) at 48 hrs divided by OD of control (control = 1)",[3]; 5 μmol/ml,0.6182
same,"biofilm growth, OD at 630 nm (crystal violet) at 48 hrs divided by OD of control (control = 1)",[3]; 10 μmol/ml,0.5044
same,"biofilm growth, OD at 630 nm (crystal violet) at 48 hrs divided by OD of control (control = 1)",[3]; 20 μmol/ml,0.4857
same,"biofilm growth, OD at 630 nm (crystal violet) at 48 hrs divided by OD of control (control = 1)",[3]; 25 μmol/ml,0.5553
same,"extent of growth, maximal OD630 over 48 hr divided by maximal OD of control (control = 1)",Fusobacterium nucleatum [4]; 5 μmol/ml,0.7922
same,"extent of growth, maximal OD630 over 48 hr divided by maximal OD of control (control = 1)",Fusobacterium nucleatum [4]; 10 μmol/ml,0.7973
same,"extent of growth, maximal OD630 over 48 hr divided by maximal OD of control (control = 1)",Fusobacterium nucleatum [4]; 20 μmol/ml,0.8395
same,"extent of growth, maximal OD630 over 48 hr divided by maximal OD of control (control = 1)",Fusobacterium nucleatum [4]; 25 μmol/ml,0.8720
same,"extent of growth, maximal OD630 over 48 hr divided by maximal OD of control (control = 1)",Prevotella intermedia [5]; 5 μmol/ml,1.0755
same,"extent of growth, maximal OD630 over 48 hr divided by maximal OD of control (control = 1)",Prevotella intermedia [5]; 10 μmol/ml,1.1717
same,"extent of growth, maximal OD630 over 48 hr divided by maximal OD of control (control = 1)",Prevotella intermedia [5]; 20 μmol/ml,1.1438
same,"extent of growth, maximal OD630 over 48 hr divided by maximal OD of control (control = 1)",Prevotella intermedia [5]; 25 μmol/ml,1.1396

# From patent US10945932B2, “Prebiotic oral care compositions containing carboxylic acids” (COLGATE-PALMOLIVE COMPANY, priority 2013, dated 2021)
